Data on 1 molecule can be found in article PMC11638952, “Fine-Tuning the Function of Farnesene Synthases for Selective Synthesis of Farnesene Stereoisomers” (Journal of Agricultural and Food Chemistry, 2024).

Common to all, as to details: 50 mM Tris-HCl pH 8.0, 10 μM MgCl2, 30 °C, 10 min, FPP 2-80 μM
In assay [1] the target is T1, AaFS (Artemisia annua, UniProt Q9FXY7).
T1 construct: gene CASC125
From the text: (§1) steady-state kinetics, product quantified by peak area after hexane extraction on AaFS

The target of assay [2] is T2, AaFS (Artemisia annua, UniProt Q9FXY7, L326I, form not given).
T2 construct: gene CASC125
Excerpt: as §1

Assay [3] has as its target T3, AaFS (Artemisia annua, UniProt Q9FXY7, M436I, form not given).
T3 construct: gene CASC125
Excerpt: as §1

The target in assay [4] is T4, AaFS (Artemisia annua, UniProt Q9FXY7, W299C, form not given).
T4 construct: gene CASC125
Excerpt: as §1

The Km is the concentration of substrate that gives half-maximal velocity.

T3 sequence (Q9FXY7 whole entry M436I, form open): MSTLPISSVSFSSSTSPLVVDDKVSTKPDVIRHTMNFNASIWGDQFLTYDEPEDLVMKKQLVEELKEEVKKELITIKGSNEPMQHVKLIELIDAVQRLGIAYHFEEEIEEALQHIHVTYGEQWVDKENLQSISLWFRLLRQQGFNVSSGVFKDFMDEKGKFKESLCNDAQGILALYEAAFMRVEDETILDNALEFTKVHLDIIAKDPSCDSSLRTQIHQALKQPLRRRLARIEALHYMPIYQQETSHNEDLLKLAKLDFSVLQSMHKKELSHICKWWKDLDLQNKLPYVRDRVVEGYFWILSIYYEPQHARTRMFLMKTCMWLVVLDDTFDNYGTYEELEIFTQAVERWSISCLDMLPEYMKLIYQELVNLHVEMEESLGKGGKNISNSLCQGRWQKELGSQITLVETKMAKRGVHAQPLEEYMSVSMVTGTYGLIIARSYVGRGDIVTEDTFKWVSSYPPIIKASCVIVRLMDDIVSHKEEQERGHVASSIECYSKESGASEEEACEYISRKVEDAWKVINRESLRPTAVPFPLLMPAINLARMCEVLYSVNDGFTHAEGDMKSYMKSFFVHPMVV
T2 sequence (Q9FXY7 whole entry L326I, form open): as the sequence (Q9FXY7 whole entry M436I, form open) above, with L326I, I436M counted along it
T4 sequence (Q9FXY7 whole entry W299C, form open): as the sequence (Q9FXY7 whole entry M436I, form open) above, with W299C, I436M counted along it
T1 sequence (Q9FXY7 whole entry): as the sequence (Q9FXY7 whole entry M436I, form open) above, with I436M counted along it

As for `CC(C)=CCC/C(C)=C/CC/C(C)=C/CO[P@@](=O)(O)OP(=O)(O)O` (stereo in doubt) [FPP, farnesyl pyrophosphate], the Km at AaFS [1] is 14.3 ± 2.3 µM; on AaFS [2], 6.75 ± 3.7 µM; on AaFS [3] it was 7.64 ± 4.8 µM; at AaFS [4], 21.3 ± 1.8 µM.
